{
  "source": "patent US9475855B2",
  "about": "“Human Notch3 based fusion proteins as decoy inhibitors of Notch3 signaling” (THE TRUSTEES OF COLUMBIA UNIVERSITY IN THE CITY OF NEW YORK, priority 2008, dated 2016)",
  "molecules": {"B1": {"name": "P1GF: placental growth factor, a selective ligand for Flt1 (protein, UniProt P49763 19-221, looked up)", "Placenta growth factor": "LPAVPPQQWALSAGNGSSEVEVVPFQEVWGRSYCRALERLVDVVSEYPSEVEHMFSPSCVSLLRCTGCCGDENLHCVPVETANVTMQLLKIRSGDRPSYVELTFSQHVRCECRHSPGRQSPDMPGDFRADAPSFLPPRRSLPMLFRMEWGCALTGSQSAVWPSSPVPEEIPRMHPGRNGKKQQRKPLREKMKPERCGDAVPRR"}},
  "format_in_all_cases": "cell-based, human",
  "key": {"Notch3": {"system": "Notch3", "assay": "quantitative RT-PCR of Prox1-induced Notch3 expression in HUVEC", "conditions": "Ad-Prox1 infected HUVEC, 24 hours", "experimental": "(A) It was examined if extopic expression of Prox1 would alter the expression of Notch proteins or ligands. Twenty-four hours post adenoviral infection with either Ad-Prox1 or Ad-LacZ, HUVEC total RNA was isolated and quantitative RT-PCR for Notch1-4, Dll4 and Jagged1 performed. […] (B) Compound E (cE), Presenlin inhibitor that inhibits Notch signaling, was incubated for 24 hours on either Ad-LacZ or Ad-Prox1 infected HUVEC. Total RNA was isolated and quantitative PCR performed to determine Notch3 expression.\nIt was examined if ectopic expression of Prox1 would alter the expression of Notch proteins or ligands. […] Total RNA was isolated and quantitative RT-PCR performed to determine Notch3 expression. Prox1 induced Notch3 expression and this induction was inhibited by the addition of compound E."}, "ephrinB2": {"system": "ephrinB2", "assay": "quantitative RT-PCR of Prox1-induced Notch-target gene ephrinB2 in HUVEC", "conditions": "Ad-Prox1 infected HUVEC, 24 hours", "experimental": "(§1) HUVEC were infected with adenoviruses encoding LacZ, Prox1, N1Ic or N4/int-3. Compound E(cE), Presenlin inhibitor that inhibits Notch signaling, was incubated for 24 hours on either Ad-LacZ or Ad-Prox1 infected HUVEC and total RNA isolated. Quantitative RT-PCR was performed for the endothelial Notch-target genes, VEGFR-3, EphrinB2, and Hey2. The Prox-1 mediated induction of the Notch target genes, ephrinB2, VEGFR-3 and Hey2 was inhibited by the addition of the Notch signaling inhibitor Compound E. Thus, Prox1 regulates the expression of ephrinB2, VEGFR-3 and Hey2 via Notch.\nas §1, with “E, as shown in FIG. 48.” for “E.”"}, "VEGFR-3": {"system": "VEGFR-3", "assay": "quantitative RT-PCR of Prox1-induced Notch-target gene VEGFR-3 in HUVEC", "conditions": "Ad-Prox1 infected HUVEC, 24 hours", "experimental": "as §1\nas §1, with “E, as shown in FIG. 48.” for “E.”"}, "Hey2": {"system": "Hey2", "assay": "quantitative RT-PCR of Prox1-induced Notch-target gene Hey2 in HUVEC", "conditions": "Ad-Prox1 infected HUVEC, 24 hours", "experimental": "as §1\nas §1, with “E, as shown in FIG. 48.” for “E.”"}, "Ad-N1IC-transduced HUVEC": {"system": "Ad-N1IC-transduced HUVEC", "assay": "Notch-induced HUVEC budding on collagen gel", "experimental": "HUVEC were transduced with either Ad-LacZ or Ad-N1IC at 40 MOI. FIGS. 23A-23C show the effect of inhibitors for receptor tyrosine kinases on Notch-induced HUVEC budding. FIG. 23A is a photograph of budding of Ad-N1IC-transduced HUVEC treated with PD166866, ZD1893 at 1 μm and SU5416 at 0.5 μm. […] FIGS. 23D-E show induction of Flt-1 expression in Ad-N1IC-transduced HUVEC. […] FIGS. 23F-G show promotion of Notch-induced HUVEC budding with P1GF stimulation. Ad-N1IC-transduced HUVEC were cultured on collagen gel with SFM, instead of complete medium, in the absence or presence of 50 ng/ml P1GF. […] FIGS. 23H-I show the effect of Flt-1 siRNA transfection on Flt1 expression. Ad-N1IC-transduced HUVEC were transfected with 200 pmol of either control (CT) or Flt-1 siRNA. […] Ad-N1IC-transduced HUVEC were transfected with either 100 or 200 pmol of siRNA and cultured on collagen gel for 2 days.\nThese Figures show inhibition of budding of Ad-N1IC-transduced HUVEC with treatment of matrix metallo-proteinase inhibitor GM6001. Either Ad-LacZ or Ad-N1IC-HUVEC at a MOI of 40 pfu/cell were cultured on collagen gel for 5 days in the absence or presence of GM6001 at 50 μm.\nTo test whether Notch signaling is down-stream of VEGF, we evaluated three distinct inhibitors for receptor tyrosine kinases, including VEGFR on N1IC-induced HUVEC budding, because three growth factors existed in complete medium (FIG. 23A-C). […] Thus, we examined whether activation of Notch signaling affected Flt1/VEGFR1 expression in HUVEC, because SU5416 inhibits both Flt1 and Flk1 kinase activity (15). […] P1GF increased the number of Ad-N1IC-HUVEC buds by 150%, compared to the absence of P1GF (FIG. 23F). Moreover, P1GF increased HUVEC buds containing multiple filopodia by 250% (FIG. 23G). […] Transfection with Flt1 siRNA inhibited budding of both Ad-N1IC- and Ad-VEGF-HUVEC to a similar extent (data not shown)."}, "CBF1 promoter activity": {"system": "CBF1 promoter activity", "assay": "VEGF-induced Notch signaling, CBF1 promoter (CSL-luciferase) reporter activity in HUVEC", "conditions": "Ad-VEGF-transduced HUVEC", "experimental": "To determine VEGF-induced Notch signaling, HUVEC which were infected with adenovirus were used. HUVEC plated 1-day prior in 6 well plates at 8.0×10^5 were infected with either Ad-LacZ as control or Ad-VEGF at indicated m.o.i. in the presence or absence of Ad-N1ECD/Fc. Two days after infection, infected HUVEC were re-seeded into 24-well plate at 1.5×10^5 cell in triplicate and cultured for 24 hours, and then transfected with 12.5 ng pRL-SV40 (Promega) and 137.5 ng pGA981-6 using Effectene transfection reagent (Qiagen). Cells were harvested either 1 or 2 days post-transfection and luciferase activity was determined by using the Dual-Luciferase® Reporter Assay System (Promega).\nOne can measure Notch signaling function by measuring transcriptional activity of CBF1 promoter, which is activated by binding of Notch-IC to CBF1. We measured CBF1 promoter activity in HUVEC which was infected with adenovirus encoding VEGF-165 at different MOI (FIG. 6). Induction of CBF1 promoter was clearly detected in Ad-VEGF-infected HUVEC, compared to Ad-LacZ-infected cells in the MOI dependent manner. […] Thus VEGF induced Notch signaling activity."}, "HUVEC": {"system": "HUVEC", "assay": "HUVEC proliferation (CCK-8 kit)", "conditions": "SFM with 1% FBS, 4 days (FIG. 26B)", "experimental": "These Figures show proliferation of Ad-VEGF165-transduced HUVEC. HUVEC were transduced with Ad-VEGF165 at the indicated dosages. Ad-LacZ was also co-infected to make the same total amount of adenovirus at a MOI of 40 pfu/cell. HUVEC were suspended in SFM supplemented with 1% FBS and then plated at 1×10^4 cells/well in 24-well multi-wll plates with 0.4 ml of medium. After 4 days, cell numbers were determined using the CCK-8 kit and the results are indicated as the ratio of cell numbers determined to the number of control cells, which were transduced with Ad-GFP at a MOI of 40 pfu/cell. […] Ad-VEGF-transduced HUVEC were treated with SU5416 at the indicated dosages.\nThese Figures show the effect of alteration of Notch signaling on cell proliferation. The cells were transduced with the indicated adenoviruses. Ad-GFP was also co-infected to make the same total amount of adenovirus at a MOI of 60 pfu/cell. After 4 days, cell numbers were determined using the CCK-8 kit and results are indicated as the ratio of cell numbers determined to the number of control cells, which were transduced with AD-GFP at MOI of 60 pfu/cell. […] Transduced HUVEC were suspended in complete medium and then plated at 1×10^4 cells/well in 24-well multiwell plates with 0.4 ml of indicated medium (□: Ad-N1IC; ▪: Ad-N1ECDFc). […]"}, "[1]": {"conditions": "receptor tyrosine kinase inhibitors, 1 μM, complete medium"}},
  "data": [
    {"molecule": "C[C@H](NC(=O)Cc1cc(F)cc(F)c1)C(=O)N[C@H]1N=C(c2ccccc2)c2ccccc2N(C)C1=O", "note": "[Compound E]", "values": [
      {"measurement": "Prox1 induction of Notch3 expression", "setting": "Notch3", "value": "inhibited"},
      {"measurement": "Prox-1 mediated induction of ephrinB2", "setting": "ephrinB2", "value": "inhibited"},
      {"measurement": "Prox-1 mediated induction of VEGFR-3", "setting": "VEGFR-3", "value": "inhibited"},
      {"measurement": "Prox-1 mediated induction of Hey2", "setting": "Hey2", "value": "inhibited"}
    ]},
    {"molecule": "CNC(=O)[C@H](Cc1c[nH]c2ccccc12)NC(=O)[C@@H](CC(=O)NO)CC(C)C", "note": "[GM6001]", "values": [
      {"measurement": "budding of Ad-N1IC-HUVEC", "setting": "Ad-N1IC-transduced HUVEC; GM6001 at 50 μm, collagen gel, 5 days", "value": "clearly decreased"},
      {"measurement": "budding of Ad-N1IC-HUVEC", "setting": "Ad-N1IC-transduced HUVEC; fibrin gel (data not shown)", "value": "clearly decreased"}
    ]},
    {"molecule": "COc1cc(OC)cc(-c2cc3cnc(N)nc3nc2NC(=O)NC(C)(C)C)c1", "note": "[P13166866]", "values": [
      {"measurement": "budding of Ad-N1IC-HUVEC", "setting": "Ad-N1IC-transduced HUVEC; [1]", "value": "Neither P13166866 or ZD1893 affected budding"}
    ]},
    {"molecule": "Cc1cc(C)c(/C=C2\\C(=O)Nc3ccccc32)[nH]1", "note": "[SU5416, reference compound]", "values": [
      {"measurement": "VEGF-induced CBF1 promoter / CSL-luciferase reporter activity", "setting": "CBF1 promoter activity", "value": "decreased"},
      {"measurement": "budding of Ad-N1IC-HUVEC versus viability", "setting": "Ad-N1IC-transduced HUVEC; lower concentrations, dose-dependency (FIG. 23C)", "value": "selectively inhibited"},
      {"measurement": "budding of Ad-N1IC-HUVEC", "setting": "Ad-N1IC-transduced HUVEC; [1]", "value": "clearly inhibited"},
      {"measurement": "proliferation of Ad-VEGF-transduced HUVEC", "setting": "HUVEC", "value": "inhibitory effect"}
    ]},
    {"molecule": "B1", "values": [
      {"measurement": "increase of HUVEC buds containing multiple filopodia", "setting": "Ad-N1IC-transduced HUVEC; 50 ng/ml P1GF, SFM", "value": 250, "unit": "%"},
      {"measurement": "increase of the number of Ad-N1IC-HUVEC buds", "setting": "Ad-N1IC-transduced HUVEC; 50 ng/ml P1GF, SFM, compared to the absence of P1GF", "value": 150, "unit": "%"}
    ]}
  ]
}
